Experimental data from patent publication US20110070171A1, “1-tert-Butylcyclohexanecarboxamide and uses thereof as cooling compounds” (priority 2009, published 2011).

What was measured:
Format in all cases: in vivo
[1] = Flavor evaluation, tasted in water; details: tasted in water at 10 ppm
Description: Based on this flavor evaluation, it is indicative that the Structure I and Structure II of our invention are useful for augmenting, enhancing or imparting a taste or cooling or refreshing effect in or to a cosmetic, skin care product, lip gloss, hair care product, cologne, shaving balm, after-shave lotion, dairy product, fruit ice preparation, confectionery, mouth and throat lozenges, cough mixtures, decongestants, antacids, oral analgesics or other medicinal products, chewing gum, candy (including hard candy and soft candy), fondants, toothpaste, mouthwashes, mineral water, alcoholic beverage, non-alcoholic beverage, powdered beverage, or other foodstuff as a result of adding to a cosmetic, skin care product, lip gloss, hair care product, cologne, shaving balm, after-shave lotion, dairy product, fruit ice preparation, confectionery, lozenges, cough mixtures, decongestants, antacids, oral analgesics or other medicinal product, chewing gum, candy, fondants, toothpaste, mouthwashes, mineral water, alcoholic beverage, non-alcoholic beverage, powdered beverage, or other foodstuff, a taste or cooling or refreshing effect augmenting, enhancing or imparting quantity and concentration of Structure I and Structure II.

[2] = Evaluation of cooler mixed with fondant
Description: In this example, the Structure I and II were mixed with a fondant, commercially available from Confectionary House, Troy, N.Y., at levels listed in Table 1.

[3] = Chewing gum profiled by trained descriptive analysis panel; details: level 0.20%
Procedure: The following gum base formulation was prepared: […]
The orange flavor is commercially available from IFF. The gum base, Hades-T is commercially available from Cafosa Gum, Barcelona Spain.
Structure I and II by itself at levels detailed in the Tables below was blended with the gum base in a Sigma mixer. The resultant chewing gum blend was then manufactured into strips 1 inch in width and 0.1 inches in thickness. These strips were cut into lengths of 3 inches each.
Samples were profiled by a highly trained descriptive analysis panel. The ballot consisted of the following terms: Total impact, total mint, cooling-mouth closed, cooling-breath in, nasal cooling—breathe in, throat irritation, bitterness, tongue irritation, numbing. Each attribute was rated at discrete time points including 1 minute, 3 minutes, 5 minutes, 10 minutes, 20 minutes, and 30 minutes.

CC(C)(C)C1(C(=O)NC2CC2)CCCCC1 [Structure I, 1-tert-butyl-N-cyclopropylcyclohexanecarboxamide]
Taste description (cooling) [1]: gradual onset cooling
COMMENTS (cooling evaluation in fondant) ([2]; 50 ppm): Slight irritation in rear of throat, slight cooling
COMMENTS (cooling evaluation in fondant) ([2]; 200 ppm): Moderate cooling, consistent, and slight tingle.

COCCNC(=O)C1(C(C)(C)C)CCCCC1 [Structure II, 1-tert-butyl-N-[2-methoxy-ethyl]cyclohexanecarboxamide]
Taste description (cooling) [1]: wet cardboard, slightly cooling
COMMENTS (cooling evaluation in fondant) ([2]; 50 ppm): Slight bitterness, very little cooling.
COMMENTS (cooling evaluation in fondant) ([2]; 200 ppm): Good Cooling low to moderate, slight throat
Time and Evaluation (cooling in chewing gum) ([3]; 0-1 min): no perceivable cooling slightly bitter,
Time and Evaluation (cooling in chewing gum) ([3]; 1-3 min): Slight cooling with slight tingle on tongue
Time and Evaluation (cooling in chewing gum) ([3]; 3-5 min): full mouth cooling not very intense, slight
Time and Evaluation (cooling in chewing gum) ([3]; 5-10 min): slight residual cooling very weak
Time and Evaluation (cooling in chewing gum) ([3]; 10-20 min): still slight cooling, slight tingle
Time and Evaluation (cooling in chewing gum) ([3]; 20-30 min): cooling diminished very weak, very mild
